Holding throughout (assay): KINOMEscan
Common to all, as to assay type: binding
Holding throughout (settings): read-out: % control activity remaining

Assay [1] deals with T1, LATS1 (Homo sapiens, UniProt O95835).
T1 construct: purchased Eurofins DiscoverX KINOMEscan
T1 sequence (O95835 1-1130): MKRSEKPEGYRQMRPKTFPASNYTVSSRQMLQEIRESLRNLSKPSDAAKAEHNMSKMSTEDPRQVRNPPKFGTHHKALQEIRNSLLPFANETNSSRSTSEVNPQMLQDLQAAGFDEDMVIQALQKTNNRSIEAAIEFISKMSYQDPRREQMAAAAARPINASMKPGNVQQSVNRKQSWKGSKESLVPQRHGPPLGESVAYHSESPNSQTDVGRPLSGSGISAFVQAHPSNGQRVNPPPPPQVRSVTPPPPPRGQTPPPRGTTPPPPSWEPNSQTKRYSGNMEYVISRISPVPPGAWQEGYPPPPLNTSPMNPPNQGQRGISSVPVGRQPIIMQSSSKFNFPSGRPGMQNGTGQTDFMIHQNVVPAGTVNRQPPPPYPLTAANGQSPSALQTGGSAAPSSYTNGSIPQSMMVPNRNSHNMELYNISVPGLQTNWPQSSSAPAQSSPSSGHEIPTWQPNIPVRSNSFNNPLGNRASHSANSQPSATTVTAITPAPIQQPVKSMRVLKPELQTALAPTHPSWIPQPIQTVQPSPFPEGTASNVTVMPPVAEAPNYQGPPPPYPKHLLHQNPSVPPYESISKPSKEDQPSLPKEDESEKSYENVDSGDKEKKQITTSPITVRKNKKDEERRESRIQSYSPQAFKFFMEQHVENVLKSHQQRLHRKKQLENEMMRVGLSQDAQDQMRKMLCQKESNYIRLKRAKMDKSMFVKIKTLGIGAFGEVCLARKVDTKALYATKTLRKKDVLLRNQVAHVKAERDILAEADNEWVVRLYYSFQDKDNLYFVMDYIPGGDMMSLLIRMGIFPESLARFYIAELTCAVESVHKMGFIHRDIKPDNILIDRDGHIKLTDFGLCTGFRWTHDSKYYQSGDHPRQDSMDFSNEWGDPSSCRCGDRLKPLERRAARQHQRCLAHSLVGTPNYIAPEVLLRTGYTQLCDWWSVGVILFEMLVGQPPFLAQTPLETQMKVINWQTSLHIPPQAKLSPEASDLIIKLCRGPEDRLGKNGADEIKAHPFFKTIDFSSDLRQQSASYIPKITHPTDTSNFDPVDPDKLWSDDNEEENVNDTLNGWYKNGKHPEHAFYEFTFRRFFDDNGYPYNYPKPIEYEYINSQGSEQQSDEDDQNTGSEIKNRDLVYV

The target of assay [2] is T2, RIOK3 (Homo sapiens, UniProt O14730).
T2 construct: purchased Eurofins DiscoverX KINOMEscan
T2 sequence (O14730 1-519): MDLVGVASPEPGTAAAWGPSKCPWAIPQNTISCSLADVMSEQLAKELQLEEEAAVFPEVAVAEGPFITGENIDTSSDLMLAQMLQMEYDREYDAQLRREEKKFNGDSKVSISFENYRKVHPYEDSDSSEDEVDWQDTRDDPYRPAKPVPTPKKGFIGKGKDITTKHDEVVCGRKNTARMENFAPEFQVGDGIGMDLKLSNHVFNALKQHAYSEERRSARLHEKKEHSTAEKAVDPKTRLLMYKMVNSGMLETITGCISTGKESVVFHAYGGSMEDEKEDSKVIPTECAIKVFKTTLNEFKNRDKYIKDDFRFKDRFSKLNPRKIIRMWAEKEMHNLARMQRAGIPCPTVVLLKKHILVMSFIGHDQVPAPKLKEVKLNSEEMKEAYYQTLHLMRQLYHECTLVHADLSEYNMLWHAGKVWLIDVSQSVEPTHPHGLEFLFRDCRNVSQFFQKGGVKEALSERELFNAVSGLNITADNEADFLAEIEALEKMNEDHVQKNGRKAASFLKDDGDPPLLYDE

For assay [3], the target named is T3, PDPK1 (Homo sapiens, UniProt O15530).
T3 construct: purchased Eurofins DiscoverX KINOMEscan
T3 sequence (O15530 1-556): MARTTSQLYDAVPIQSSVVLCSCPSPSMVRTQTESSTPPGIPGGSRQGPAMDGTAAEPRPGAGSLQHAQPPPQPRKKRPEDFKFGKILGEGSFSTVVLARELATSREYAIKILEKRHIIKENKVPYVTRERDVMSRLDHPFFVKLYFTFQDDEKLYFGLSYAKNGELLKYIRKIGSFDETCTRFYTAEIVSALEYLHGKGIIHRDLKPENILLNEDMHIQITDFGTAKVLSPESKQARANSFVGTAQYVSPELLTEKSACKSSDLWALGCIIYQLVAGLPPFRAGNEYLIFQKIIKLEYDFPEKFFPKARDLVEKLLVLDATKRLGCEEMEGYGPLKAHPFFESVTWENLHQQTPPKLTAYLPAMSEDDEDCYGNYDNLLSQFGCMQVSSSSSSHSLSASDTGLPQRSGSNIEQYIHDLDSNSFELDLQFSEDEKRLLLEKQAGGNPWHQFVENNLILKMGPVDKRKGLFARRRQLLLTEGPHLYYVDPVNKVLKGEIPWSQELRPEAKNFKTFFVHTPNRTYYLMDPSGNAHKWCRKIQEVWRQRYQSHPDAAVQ

Assay [4] addresses T4, EGFR(L747-T751del,Sins) (Homo sapiens, UniProt P00533, DEL747-750/T751S).
T4 construct: purchased Eurofins DiscoverX KINOMEscan

For assay [5], the target named is T5, CLK2 (Homo sapiens, UniProt P49760).
T5 construct: purchased Eurofins DiscoverX KINOMEscan

The target in assay [6] is T6, DYRK1A (Homo sapiens, UniProt Q13627).
T6 construct: purchased Eurofins DiscoverX KINOMEscan

T5 sequence (P49760 whole entry): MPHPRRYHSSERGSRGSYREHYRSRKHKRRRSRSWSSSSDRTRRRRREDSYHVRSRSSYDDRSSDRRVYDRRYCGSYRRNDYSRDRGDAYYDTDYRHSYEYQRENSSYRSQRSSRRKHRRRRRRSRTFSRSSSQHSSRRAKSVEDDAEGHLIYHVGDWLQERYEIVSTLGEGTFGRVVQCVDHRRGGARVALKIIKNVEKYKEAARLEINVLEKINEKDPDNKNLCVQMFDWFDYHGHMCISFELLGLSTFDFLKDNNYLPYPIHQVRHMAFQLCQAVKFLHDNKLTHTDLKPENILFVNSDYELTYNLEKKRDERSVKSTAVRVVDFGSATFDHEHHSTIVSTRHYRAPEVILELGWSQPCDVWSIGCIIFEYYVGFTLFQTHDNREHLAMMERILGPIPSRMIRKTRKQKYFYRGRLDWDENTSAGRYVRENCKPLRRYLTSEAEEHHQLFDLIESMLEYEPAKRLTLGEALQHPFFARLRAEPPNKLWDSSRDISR
T4 sequence (P00533 with tags, fused parts or gaps DEL747-750/T751S limits assumed): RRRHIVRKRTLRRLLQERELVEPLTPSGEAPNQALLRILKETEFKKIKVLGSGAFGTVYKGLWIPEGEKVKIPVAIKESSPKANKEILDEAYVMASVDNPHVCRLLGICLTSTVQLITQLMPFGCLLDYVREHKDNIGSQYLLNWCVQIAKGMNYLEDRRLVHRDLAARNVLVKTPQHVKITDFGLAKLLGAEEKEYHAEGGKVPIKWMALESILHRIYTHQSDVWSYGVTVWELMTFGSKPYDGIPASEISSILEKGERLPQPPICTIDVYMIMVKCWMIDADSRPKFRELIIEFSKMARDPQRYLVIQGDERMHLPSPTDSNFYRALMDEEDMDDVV

Consider `Clc1cc(NCC2CC2)c2ncc(-c3ccc4[nH]ncc4c3)n2n1` [compound 2, 6-Chloro-N-(cyclopropylmethyl)-3-(1H-indazol-5-yl)imidazo[1,2-b]pyridazin-8-amine], for which the remaining binding at 1 µM in assay [1] worked out at 82%; in assay [2], 31%; in assay [3], 88%; in assay [4] it was 88%; in assay [5] it was 9.6%; in assay [6] it was 5.1%.
As for `O=C(CN1CCOCC1)N[C@H]1CC[C@H](Nc2cc(Cl)nn3c(-c4ccc5[nH]ncc5c4)cnc23)CC1` [compound 26], the remaining binding at 1 µM in assay [1] worked out at 82%; in assay [2] it was 32%; in assay [3] it was 100%; in assay [4], 96%; in assay [5], 4.2%; in assay [6], 0.35%.
Take `CN1CCC(CNc2cc(Cl)nn3c(-c4cc5nc(Nc6ccccc6)[nH]c5cc4F)cnc23)CC1` [compound 31, 6-Chloro-3-(6-fluoro-2-(phenylamino)-1H-benzo[d]imidazol-5-yl)-N-((1-methylpiperidin-4-yl)methyl)imidazo[1,2-b]pyridazin-8-amine]: the remaining binding at 1 µM in assay [1] is 86%; in assay [2], 94%; in assay [3], 100%; in assay [4], 92%; in assay [5] it was 79%; in assay [6], 71%.
